The experiment deals with T1, L-glutaminase.
T1 construct: native extracellular enzyme purified from culture (ammonium sulfate, DEAE-cellulose, Sephacryl S-300); 52 kDa by SDS-PAGE (54 kDa in discussion); monomer
Put plainly: steady-state kinetics, ammonia release by Nesslerization. It is filed as biochemical, Streptomyces sp. 5 M. The conditions noted are these: substrate 2-5 mM; pH and temperature of the kinetic run not printed (optimum pH 7.5, 40 °C). An excerpt:
steady-state kinetics, ammonia release by Nesslerization on L-glutaminase | the purified L-glutaminase from Streptomyces sp.

As a reminder, the Km is the substrate concentration at which the rate is half of its maximum.

On to `NC(=O)CC[C@H](N)C(=O)O` [L-glutamine], for which the Km is 2.62 mM.

These data come from paper PMC11699688, “Unravelling the outcome of L-glutaminase produced by Streptomyces sp. strain 5 M as an anti-neoplasm activity” (Microbial Cell Factories, 2025).
